Laboratory results as given in US20090270390A1, “PYRIMIDINE DERIVATIVES” (AstraZeneca, priority 2006, published 2009).

Assays:
[1] = tested on: phosphorylation of Serine 473 in Akt in MDA-MB-468 human breast adenocarcinoma cell line; assay: In vitro phospho-Ser473 Akt assay, Test (c); format: cell-based; conditions: MDA-MB-468 cells, read-out: IC50 (inhibition of Serine 473 phosphorylation in Akt)
Protocol: This assay determines the ability of test compounds to inhibit phosphorylation of Serine 473 in Akt as assessed using Acumen Explorer technology (TTP LabTech Limited, Royston, Herts, SG8 6EE, UK), a plate reader that can be used to rapidly quantitate features of images generated by laser-scanning.
A MDA-MB-468 human breast adenocarcinoma cell line (LGC Promochem, Teddington, Middlesex, UK, Catalogue No. HTB-132) was routinely maintained at 37° C. with 5% CO2 up to a confluency of 70-90% in DMEM containing 10% FCS and 1% L-glutamine.
For the assay, the cells were detached from the culture flask using ‘Accutase’ (Innovative Cell Technologies Inc., San Diego, Calif., USA; Catalogue No. AT104) using standard tissue culture methods and resuspended in media to give 5.5×10^4 cells per ml. Aliquots (90 μl) were seeded into each of the inner 60 wells of a black ‘Costar’ 96-well plate (Corning Inc., NY, USA; Catalogue No. 3904) to give a density of ˜5000 cells per well. Aliquots (90 μl) of culture media were placed in the outer wells to prevent edge effects. [An alternative cell handling procedure involved the maintenance of the cells in a ‘SelecT’ robotic device (The Automation Partnership, Royston, Herts SG8 5WY, UK). Cells were resuspended in media to give 5×10^4 cells per ml. Aliquots (100 μl) were seeded into the wells of a black ‘Costar’ 96-well plate.] […]

p110α Type Ia human PI3K = target: T1, p110α Type Ia human PI3K (Homo sapiens, UniProt P42336); assay: In vitro PI3K enzyme assay (AlphaScreen), Test (a); format: biochemical; conditions: read-out: IC50 versus p110α Type Ia human PI3K
T1 construct: full length DNA of each of the p110α, p110β and p110δ Type Ia human PI3K p110 isoforms; 6-His; made in house; Grp1 PH domain made in E. coli
From the text: The assay used AlphaScreen technology (Gray et al., Analytical Biochemistry, 2003, 313: 234-245) to determine the ability of test compounds to inhibit phosphorylation by recombinant Type I PI3K enzymes of the lipid PI(4,5)P2.
DNA fragments encoding human PI3K catalytic and regulatory subunits were isolated from cDNA libraries using standard molecular biology and PCR cloning techniques. The selected DNA fragments were used to generate baculovirus expression vectors. In particular, full length DNA of each of the p110α, p110β and p110δ Type Ia human PI3K p110 isoforms (EMBL Accession Nos. HSU79143, S67334, Y10055 for p110α, p110β and p110δ respectively) were sub-cloned into a pDEST10 vector (Invitrogen Limited, Fountain Drive, Paisley, UK). The vector is a Gateway-adapted version of Fastbac 1 containing a 6-His epitope tag. […]
Biotinylated-DiC8-PI(3,4,5)P3 (50 nM; Cell Signals Inc., Catalogue No. 107), recombinant purified GST-Grp1 PH protein (2.5 nM) and AlphaScreen Anti-GST donor and acceptor beads (100 ng; Packard Bioscience Limited, Station Road, Pangbourne, Berkshire, UK, Catalogue No. 6760603M) were added and the assay plates were left for about 5 to 20 hours at room temperature in the dark. The resultant signals arising from laser light excitation at 680 nm were read using a Packard AlphaQuest instrument. […]

T1 sequence (P42336 whole entry, the tested form may be a part, canonical isoform): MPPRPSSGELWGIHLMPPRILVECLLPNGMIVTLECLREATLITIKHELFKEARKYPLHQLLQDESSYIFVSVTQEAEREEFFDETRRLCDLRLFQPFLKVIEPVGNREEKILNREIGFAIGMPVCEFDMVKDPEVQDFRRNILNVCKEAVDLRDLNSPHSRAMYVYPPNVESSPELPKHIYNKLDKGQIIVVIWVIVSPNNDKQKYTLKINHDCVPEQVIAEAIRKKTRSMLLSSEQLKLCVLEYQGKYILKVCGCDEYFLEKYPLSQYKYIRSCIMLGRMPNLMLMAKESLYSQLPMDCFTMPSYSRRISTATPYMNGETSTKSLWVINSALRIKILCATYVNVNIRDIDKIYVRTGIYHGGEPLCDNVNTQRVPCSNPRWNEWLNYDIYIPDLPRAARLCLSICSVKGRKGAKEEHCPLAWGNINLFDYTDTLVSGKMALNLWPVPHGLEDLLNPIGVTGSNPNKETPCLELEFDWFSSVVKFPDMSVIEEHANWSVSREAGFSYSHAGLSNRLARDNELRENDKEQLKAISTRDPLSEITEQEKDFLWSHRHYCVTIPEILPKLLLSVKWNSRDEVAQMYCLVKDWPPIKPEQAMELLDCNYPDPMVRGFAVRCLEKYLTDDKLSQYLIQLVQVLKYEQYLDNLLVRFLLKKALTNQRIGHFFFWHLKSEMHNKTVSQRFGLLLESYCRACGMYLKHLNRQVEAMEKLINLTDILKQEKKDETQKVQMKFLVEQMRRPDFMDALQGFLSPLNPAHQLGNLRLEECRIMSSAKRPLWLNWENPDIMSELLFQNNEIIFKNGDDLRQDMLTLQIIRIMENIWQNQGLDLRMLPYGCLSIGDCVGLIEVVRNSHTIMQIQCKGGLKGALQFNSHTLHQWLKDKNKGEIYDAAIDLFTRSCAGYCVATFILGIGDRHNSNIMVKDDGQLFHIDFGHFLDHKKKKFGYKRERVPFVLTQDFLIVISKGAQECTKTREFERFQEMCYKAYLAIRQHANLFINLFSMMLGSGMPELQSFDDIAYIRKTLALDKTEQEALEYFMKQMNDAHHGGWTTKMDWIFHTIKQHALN
T1 sequence (P27986 whole entry partner, the tested form may be a part, canonical isoform): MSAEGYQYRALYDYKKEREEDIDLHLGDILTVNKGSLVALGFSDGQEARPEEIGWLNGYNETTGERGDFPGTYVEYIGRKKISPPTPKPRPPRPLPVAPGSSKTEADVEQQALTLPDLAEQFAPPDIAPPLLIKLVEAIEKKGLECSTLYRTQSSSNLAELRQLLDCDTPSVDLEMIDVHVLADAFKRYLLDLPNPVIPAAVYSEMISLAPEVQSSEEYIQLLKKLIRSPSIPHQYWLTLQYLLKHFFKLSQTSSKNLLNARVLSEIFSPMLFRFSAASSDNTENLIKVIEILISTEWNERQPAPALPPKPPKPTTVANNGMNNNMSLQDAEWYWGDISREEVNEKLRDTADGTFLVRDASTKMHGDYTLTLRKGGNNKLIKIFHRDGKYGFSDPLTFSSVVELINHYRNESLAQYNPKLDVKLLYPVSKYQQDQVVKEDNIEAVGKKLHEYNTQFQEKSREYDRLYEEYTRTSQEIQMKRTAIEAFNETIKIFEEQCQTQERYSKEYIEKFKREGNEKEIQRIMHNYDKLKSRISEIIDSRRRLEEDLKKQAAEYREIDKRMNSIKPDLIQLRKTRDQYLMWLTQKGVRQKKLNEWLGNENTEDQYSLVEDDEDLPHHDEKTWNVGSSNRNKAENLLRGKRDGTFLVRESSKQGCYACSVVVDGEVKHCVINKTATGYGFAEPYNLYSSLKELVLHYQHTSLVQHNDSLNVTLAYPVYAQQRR

NCC(=O)N1CCN(c2cc(N3CCOCC3)nc(-n3c(C(F)F)nc4ccccc43)n2)CC1 [Example 1, 2-(2-difluoromethylbenzimidazol-1-yl)-4-(4-glycylpiperazin-1-yl)-6-morpholinopyrimidine]
IC50 [1]: ~10 nM | IC50 (p110α Type Ia human PI3K): ~100 nM
